Laboratory results from patent US20190100534A1, “Cephem Compounds with Latent Reactive Groups” (Gladius Pharmaceuticals, Inc., priority 2017, published 2019).

Columns and labels:
Assay in all cases: MIC determination
EC (URMC-2) = assay type: cell-based, Escherichia coli; details: CAMH broth, 20 μM Apo-Transferrin, 37° C., 18 hours
Description: (§1) Sterile technique was used throughout these experiments. Suspensions of organisms were removed from storage (−80° C.) and partially thawed. Partially thawed organisms (1 μL) were inoculated into 3 mL sterile LB Broth in a sterile culture tube and capped, then cultured at 37° C. with shaking for 4-5 hours until the optical density at 600 nm (OD600) was greater than 0.1 on a single beam spectrophotometer.
(§2) The concentration of organisms was adjusted to 0.08-0.1 OD600 (0.5 McFarland units) by dilution with sterile cation-adjusted Meuller-Hinton (CAMH) broth. The suspensions were used within 30 minutes of preparation.
(§3) A stock solution was made of each test compound by measuring 6.4 mg of the compound on an analytical balance and dissolving it in DMSO (1 mL) to get a transparent solution. The solutions were stored at −20° C. and thawed prior to use.
(§4) Sterile CAMH broth (200 μL) containing 20 μM Apo-Transferrin was pipetted into the first row of 8 columns of a sterile, round-bottomed, transparent, 96-well microplate using an 8-channel pipette equipped with sterile tips. One hundred μL was pipetted into the wells of the remaining 11 rows.
(§5) With an 8-channel pipette equipped with sterile tips, 100 μL of the first row solution was transferred to the second row and mixed. The process was repeated for the second to third rows and continued through row 11. One hundred μL from row 11 was removed and discarded so that all 12 rows contained 100 μL. Row 12 contained no compound and rows 1-11 contained 64, 32, 16, 8, 4, 2, 1, 0.5, 0.25, 0.125, […] of a given compound.
(§6) Inoculant suspensions (0.5 μL) were added to the 12 wells of each column. The plates were then covered and incubated at 37° C. overnight for 18 hours.
(§7) For each organism the MIC was determined by identifying the transparent well with the lowest test compound concentration.

EC (RR -2) = assay type: cell-based, Escherichia coli; details: CAMH broth, 20 μM Apo-Transferrin, 37° C., 18 hours
Description: as §1, §2, §3, §4, §5, §6, §7

EC(ATCC NDM-1) = assay type: cell-based, Escherichia coli; details: CAMH broth, 20 μM Apo-Transferrin, 37° C., 18 hours
Description: as §1, §2, §3, §4, §5, §6, §7

EC(KB2 CTX-M-15) = assay type: cell-based, Escherichia coli; details: CAMH broth, 20 μM Apo-Transferrin, 37° C., 18 hours
Description: as §1, §2, §3, §4, §5, §6, §7

EC (URMC-1) = assay type: cell-based, Escherichia coli; details: CAMH broth, 20 μM Apo-Transferrin, 37° C., 18 hours
Description: as §1, §2, §3, §4, §5, §6, §7

EC(JMI OXA-48) = assay type: cell-based, Escherichia coli; details: CAMH broth, 20 μM Apo-Transferrin, 37° C., 18 hours
Description: as §1, §2, §3, §4, §5, §6, §7

EC(KB1 CTX-M-15) = assay type: cell-based, Escherichia coli; details: CAMH broth, 20 μM Apo-Transferrin, 37° C., 18 hours
Description: as §1, §2, §3, §4, §5, §6, §7

EC (URMC-3) = assay type: cell-based, Escherichia coli; details: CAMH broth, 20 μM Apo-Transferrin, 37° C., 18 hours
Description: as §1, §2, §3, §4, §5, §6, §7

EC (RR -1) = assay type: cell-based, Escherichia coli; details: CAMH broth, 20 μM Apo-Transferrin, 37° C., 18 hours
Description: as §1, §2, §3, §4, §5, §6, §7

KP(JMI KPC-2) = assay type: cell-based, Klebsiella pneumoniae; details: CAMH broth, 20 μM Apo-Transferrin, 37° C., 18 hours
Description: as §1, §2, §3, §4, §5, §6, §7

KP(GJ 5934 TEM-26) = assay type: cell-based, Klebsiella pneumoniae; details: CAMH broth, 20 μM Apo-Transferrin, 37° C., 18 hours
Description: as §1, §2, §3, §4, §5, §6, §7

KP (URMC-1) = assay type: cell-based, Klebsiella pneumoniae; details: CAMH broth, 20 μM Apo-Transferrin, 37° C., 18 hours
Description: as §1, §2, §3, §4, §5, §6, §7

KP (RR -1) = assay type: cell-based, Klebsiella pneumoniae; details: CAMH broth, 20 μM Apo-Transferrin, 37° C., 18 hours
Description: as §1, §2, §3, §4, §5, §6, §7

KP (GJ 5659 TEM-26) = assay type: cell-based, Klebsiella pneumoniae; details: CAMH broth, 20 μM Apo-Transferrin, 37° C., 18 hours
Description: as §1, §2, §3, §4, §5, §6, §7

KP (URMC-2) = assay type: cell-based, Klebsiella pneumoniae; details: CAMH broth, 20 μM Apo-Transferrin, 37° C., 18 hours
Description: as §1, §2, §3, §4, §5, §6, §7

KP (URMC-3) = assay type: cell-based, Klebsiella pneumoniae; details: CAMH broth, 20 μM Apo-Transferrin, 37° C., 18 hours
Description: as §1, §2, §3, §4, §5, §6, §7

KP (ATCC KPC-3) = assay type: cell-based, Klebsiella pneumoniae; details: CAMH broth, 20 μM Apo-Transferrin, 37° C., 18 hours
Description: as §1, §2, §3, §4, §5, §6, §7

[1] = system: Pseudomonas aeruginosa PA (URMC-2); assay type: cell-based; details: PA (URMC-2); CAMH broth, 20 μM Apo-Transferrin, 37° C., 18 hours
Summary of the method: (§8)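 Broth microdilution in CAMH + 20 μM apo-transferrin; inoculum 0.5 McFarland, used within 30 min. Compound 64→0.125 μg/mL, twofold steps. 37 °C, 18 h. MIC = lowest clear-well concentration.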

[2] = system: Pseudomonas aeruginosa (PA); assay type: cell-based; details: PA; CAMH broth, 20 μM Apo-Transferrin, 37° C., 18 hours
Summary of the method: as §8

[3] = system: Pseudomonas aeruginosa PA (URMC-3); assay type: cell-based; details: PA (URMC-3); CAMH broth, 20 μM Apo-Transferrin, 37° C., 18 hours
Summary of the method: as §8

[4] = system: Pseudomonas aeruginosa PA-RR-(98023895); assay type: cell-based; details: PA-RR-(98023895); CAMH broth, 20 μM Apo-Transferrin, 37° C., 18 hours
Summary of the method: as §8

[5] = system: Pseudomonas aeruginosa PA-RR-(G7294437); assay type: cell-based; details: PA-RR-(G7294437); CAMH broth, 20 μM Apo-Transferrin, 37° C., 18 hours
Summary of the method: as §8

[6] = system: Pseudomonas aeruginosa PA-RR-(G7304100); assay type: cell-based; details: PA-RR-(G7304100); CAMH broth, 20 μM Apo-Transferrin, 37° C., 18 hours
Summary of the method: as §8

[7] = system: A. baumannii (JMI OXA-58); assay type: cell-based, Acinetobacter baumannii; details: class D carbapenemase producer, CAMH broth, 20 μM Apo-Transferrin, 37° C., 18 hours
Description: as §1, §2, §3, §4, §5, §6, §7

A. baumannii = assay type: cell-based, Acinetobacter baumannii
Description: as §1, §2, §3, §4, §5, §6, §7

EA (URMC -3) = assay type: cell-based; details: CAMH broth, 20 μM Apo-Transferrin, 37° C., 18 hours
Description: as §1, §2, §3, §4
To each well of the first row was pipetted 2.0 μL of the 6.4 mg/mL stock test compound stock solution to give 1:100 dilutions and a final concentration of 64 μg/mL and mixed.
as §5, §6, §7

ENC (ATCC NDM-1) = assay type: cell-based, Enterobacter cloacae; details: CAMH broth, 20 μM Apo-Transferrin, 37° C., 18 hours
Description: as §1, §2, §3, §4, §5, §6, §7

With CC(C)(O/N=C(\C(=O)N[C@@H]1C(=O)N2C(C(=O)O)=C(C=Cc3ccc(C[n+]4ccc5cc(O)c(O)cc5c4)cc3)CS[C@H]12)c1csc(N)n1)C(=O)O (mixture of isomers) [Compound 435, 2-(4-((E/Z)-2-((6R,7R)-7-((Z)-2-(2-aminothiazol-4-yl)-2-(((2-carboxypropan-2-yl)oxy)imino)acetamido)-2-carboxy-8-oxo-5-thia-1-azabicyclo[4.2.0]oct-2-en-3-yl)vinyl)benzyl)-6,7-dihydroxyisoquinolin-2-ium] the “Minimum Inhibitory Concentrations, EC (URMC-2)” value (EC (URMC-2)) was ≤0.06 microgram/mL, the “Mimimum Inhibitory Concentrations, EC (RR -2)” value (EC (RR -2)) was ≤0.06 microgram/mL and the “Minimum Inhibitory Concentrations, EC(ATCC NDM-1)” value (EC(ATCC NDM-1)) was >64 microgram/mL. For the same molecule, the “Minimum Inhibitory Concentrations, EC(KB2 CTX-M-15)” value (EC(KB2 CTX-M-15)) was 0.5 microgram/mL, the “Minimum Inhibitory Concentrations, EC (URMC-1)” value (EC (URMC-1)) was ≤0.06 microgram/mL and the “Minimum Inhibitory Concentrations, EC(JMI OXA-48)” value (EC(JMI OXA-48)) was 0.5 microgram/mL. For the same molecule, the “Minimum Inhibitory Concentrations, EC(KB1 CTX-M-15)” value (EC(KB1 CTX-M-15)) was 0.13 microgram/mL, the “Minimum Inhibitory Concentrations, EC (URMC-3)” value (EC (URMC-3)) was 0.5 microgram/mL and the “Mimimum Inhibitory Concentrations, EC (RR -1)” value (EC (RR -1)) was ≤0.06 microgram/mL. The “Minimum Inhibitory Concentrations, KP(JMI KPC-2)” value (KP(JMI KPC-2)) was 4 microgram/mL, the “Minimum Inhibitory Concentrations, KP(GJ 5934 TEM-26)” value (KP(GJ 5934 TEM-26)) was <0.06 microgram/mL and the “Minimum Inhibitory Concentrations, KP (URMC-1)” value (KP (URMC-1)) was ≤0.06 microgram/mL. The “Mimimum Inhibitory Concentrations, KP (RR -1)” value (KP (RR -1)) was ≤0.06 microgram/mL, the “Minimum Inhibitory Concentrations, KP (GJ 5659 TEM-26)” value (KP (GJ 5659 TEM-26)) was 0.13 microgram/mL and the “Minimum Inhibitory Concentrations, KP (URMC-2)” value (KP (URMC-2)) was ≤0.06 microgram/mL. For the same molecule, the “Minimum Inhibitory Concentrations, KP (URMC-3)” value (KP (URMC-3)) was ≤0.06 microgram/mL, the “Minimum Inhibitory Concentrations, KP (ATCC KPC-3)” value (KP (ATCC KPC-3)) was >64 microgram/mL and the “Minimum Inhibitory Concentrations, PA (URMC-2)” value [1] was 0.25 microgram/mL. For the same molecule, the “Minimum Inhibitory Concentrations, PA” value [2] was ≤0.06 microgram/mL, the “Minimum Inhibitory Concentrations, PA (URMC-3)” value [3] was ≤0.06 microgram/mL and the “Minimum Inhibitory Concentrations, PA-RR-(98023895)” value [4] was 1 microgram/mL. For the same molecule, the “Minimum Inhibitory Concentrations, PA-RR-(G7294437)” value [5] was ≤0.06 microgram/mL, the “Minimum Inhibitory Concentrations, PA-RR-(G7304100)” value [6] was ≤0.06 microgram/mL and the “Minimum Inhibitory Concentrations, A. baumannii (JMI OXA-58)” value [7] was >64 microgram/mL. The “Minimum Inhibitory Concentrations, A. baumannii” value (A. baumannii; A. baumannii, CAMH broth, 20 μM Apo-Transferrin, 37° C., 18 hours) was 1 microgram/mL, the “MICs for an Acinetobacter baumannii strain, in words” value (A. baumannii; review of Table 2) was “low microgram/mL MICs” and the “Mimimum Inhibitory Concentrations, EA (URMC -3)” value (EA (URMC -3)) was 0.5 microgram/mL. For the same molecule, the “Mimimum Inhibitory Concentrations, ENC (ATCC NDM-1)” value (ENC (ATCC NDM-1)) was >64 microgram/mL.

For C#CC[N+]1(Cc2ccc(C=CC3=C(C(=O)O)N4C(=O)[C@@H](NC(=O)/C(=N\OC(C)(C)C(=O)O)c5csc(N)n5)[C@H]4SC3)cc2)CCc2cc(O)c(O)cc2C1 (mixture of isomers) [Compound 446, 2-(4-((E/Z)-2-((6R,7R)-7-((Z)-2-(2-aminothiazol-4-yl)-2-(((2-carboxypropan-2-yl)oxy)imino)acetamido)-2-carboxy-8-oxo-5-thia-1-azabicyclo[4.2.0]oct-2-en-3-yl)vinyl)benzyl)-6,7-dihydroxy-2-(prop-2-yn-1-yl)-1,2,3,4-tetrahydroisoquinolin-2-ium], the MIC (EC(ATCC NDM-1); Escherichia coli, read-out: Minimum Inhibitory Concentrations, EC(ATCC NDM-1)) was > 64 µg/mL, the MIC (EC(KB2 CTX-M-15); Escherichia coli, read-out: Minimum Inhibitory Concentrations, EC(KB2 CTX-M-15)) was > 64 µg/mL and the MIC (EC(JMI OXA-48); Escherichia coli, read-out: Minimum Inhibitory Concentrations, EC(JMI OXA-48)) was 16 µg/mL. For the same molecule, the MIC (EC(KB1 CTX-M-15); Escherichia coli, read-out: Minimum Inhibitory Concentrations, EC(KB1 CTX-M-15)) was 64 µg/mL, the “Minimum Inhibitory Concentrations, KP(JMI KPC-2)” value (KP(JMI KPC-2)) was 32 microgram/mL and the “Minimum Inhibitory Concentrations, KP(GJ 5934 TEM-26)” value (KP(GJ 5934 TEM-26)) was 0.5 microgram/mL. The “Minimum Inhibitory Concentrations, KP (GJ 5659 TEM-26)” value (KP (GJ 5659 TEM-26)) was 2 microgram/mL, the “Minimum Inhibitory Concentrations, KP (ATCC KPC-3)” value (KP (ATCC KPC-3)) was 64 microgram/mL and the MIC ([7]; Acinetobacter baumannii, read-out: Minimum Inhibitory Concentrations, A. baumannii (JMI OXA-58)) was > 64 µg/mL. For the same molecule, the MIC (A. baumannii; Acinetobacter baumannii, A. baumannii, CAMH broth, 20 μM Apo-Transferrin, 37° C., 18 hours, read-out: Minimum Inhibitory Concentrations, A. baumannii) was 2 µg/mL and the “Mimimum Inhibitory Concentrations, ENC (ATCC NDM-1)” value (ENC (ATCC NDM-1)) was >64 microgram/mL.
